# Experimental data as given in ChEMBL document CHEMBL5537204, “Identifying Marine-Derived Tanzawaic Acid Derivatives as Novel Inhibitors against Osteoclastogenesis and Osteoporosis via Downregulation of NF-κB and NFATc1 Activation” (J Med Chem, 2024).
# Activity calls are given as the source filed them. The calls are words filed in the database; no cut-off is given here.
# Tests used:
# RAW264.7 [1] = test: Inhibition of LPS-induced NF-kappaB activation in mouse RAW264.7 cells expressing luciferase gene at 20 uM preincubated with compound for 30 mins followed by LPS-induction and measured after 6 hrs by luciferase reporter gene assay; type: cell-based; settings: time 6.5 hrs
# RAW264.7 [2] = test: Inhibition of LPS-induced NF-kappaB activation in mouse RAW264.7 cells expressing luciferase gene preincubated with compound for 30 mins followed by LPS-induction and measured after 6 hrs by luciferase reporter gene assay; type: cell-based; settings: dose 20.0 µM, time 6.5 hrs
# BMMC [3] = test: Anti-osteoporosis activity in C57BL/6 mouse BMMC cells assessed as reduction in RANKL-induced osteoclasts formation at 10 uM incubated for 4 days in presence of MCSF by TRAP staining based assay; type: functional
# RAW264.7 [4] = test: Inhibition of RANKL-induced NF-kappaB activation in mouse RAW264.7 cells expressing luciferase gene assessed as suppression of IkappaBalpha degradation at 1 to 10 uM preincubated with compound for 4 hrs followed by LPS-induction and measured after 6 hrs by Western blot analysis; type: cell-based; settings: dose 1-10 µM, time 10.0 hrs
# BMMC [5] = test: Anti-osteoclastogenesis activity in RANKL-induced C57BL/6 mouse BMMC cells assessed as inhibition of TRAP mRNA expression pretreated with compound for 4 hrs followed by RANKL-induction and measured after 24 hrs by RT-PCR analysis; type: functional, cell-based; settings: dose 1-10 µM, time 28.0 hrs
# Mus musculus [6] = test: Anti-osteoporosis activity in OVX-induced osteoporosis C57BL/6 mouse model assessed as downregulation of p65 expression in bone at 5 to 10 mg/kg, IG administered every 3 days for 8 weeks by IHC analysis; type: functional, organism-based; settings: dose 5-10 mg/kg
# BMMC [7] = test: Anti-osteoclastogenesis activity in RANKL-induced C57BL/6 mouse BMMC cells assessed as inhibition of OSCAR mRNA expression pretreated with compound for 4 hrs followed by RANKL-induction and measured after 24 hrs by RT-PCR analysis; type: functional, cell-based; settings: dose 1-10 µM, time 28.0 hrs
# BMMC [8] = test: Cytotoxicity against mouse BMMC cells assessed as reduction in cell viability at 10 uM incubated for 4 days by MTT assay; type: toxicity, cell-based; settings: 96 h, time 4 day
# Mus musculus [9] = test: Anti-osteoporosis activity in OVX-induced osteoporosis C57BL/6 mouse model assessed as prevention of bone loss in femur at 5 to 10 mg/kg, IG administered every 3 days for 8 weeks; type: functional, organism-based; settings: dose 5-10 mg/kg
# Mus musculus [10] = test: Anti-osteoporosis activity in OVX-induced osteoporosis C57BL/6 mouse model assessed as prevention of bone loss in femur at 5 to 10 mg/kg, IG administered every 3 days for 8 weeks by H and E staining based analysis; type: functional, organism-based; settings: dose 5-10 mg/kg
# [11] = Toxicity in C57BL/6 mouse assessed as animal death at 5 to 10 mg/kg, IG administered every 3 days for 46 days; type: organism-based; settings: in vivo, po, 1104 h, dose 5-10 mg/kg, time 46 day
# RAW264.7 [12] = test: Downregulation of p65 expression in RANKL-induced mouse RAW264.7 cells expressing NFATc1 at 10 uM pretreated with compound for 4 hrs followed by RANKL-induction and measured after 24 hrs by Western blot analysis; type: functional, cell-based; settings: time 28.0 hrs
# Mus musculus [13] = test: Anti-osteoporosis activity in OVX-induced osteoporosis C57BL/6 mouse model assessed as increase in BV/TV in femur at 5 to 10 mg/kg, IG administered every 3 days for 8 weeks; type: functional, organism-based; settings: dose 5-10 mg/kg
# Transcription factor p65 = Transcription factor p65 (Mus musculus, UniProt Q04207); test: Binding affinity to NF-kappaB p65 in mouse RAW264.7 cells assessed as dissociation constant by SPR analysis
# Transcription factor p65, sequence (Q04207 whole entry): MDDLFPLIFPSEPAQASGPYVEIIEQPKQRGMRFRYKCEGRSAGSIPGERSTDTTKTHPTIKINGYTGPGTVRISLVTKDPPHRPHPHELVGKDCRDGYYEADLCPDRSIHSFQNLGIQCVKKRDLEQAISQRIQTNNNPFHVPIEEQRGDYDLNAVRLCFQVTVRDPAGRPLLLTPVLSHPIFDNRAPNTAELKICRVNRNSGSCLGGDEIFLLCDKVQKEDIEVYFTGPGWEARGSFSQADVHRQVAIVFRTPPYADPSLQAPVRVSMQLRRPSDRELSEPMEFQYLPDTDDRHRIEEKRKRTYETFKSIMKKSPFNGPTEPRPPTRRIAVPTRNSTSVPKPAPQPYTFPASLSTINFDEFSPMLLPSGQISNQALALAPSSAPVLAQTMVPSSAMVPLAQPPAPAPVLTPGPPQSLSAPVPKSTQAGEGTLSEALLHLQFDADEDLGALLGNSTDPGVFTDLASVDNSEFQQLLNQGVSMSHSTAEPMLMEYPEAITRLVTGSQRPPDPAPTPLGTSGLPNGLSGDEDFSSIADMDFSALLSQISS
# BMMC [14] = test: Anti-osteoclastogenesis activity in RANKL-induced C57BL/6 mouse BMMC cells assessed as inhibition of Atp6v0d2 mRNA expression pretreated with compound for 4 hrs followed by RANKL-induction and measured after 24 hrs by RT-PCR analysis; type: functional, cell-based; settings: dose 1-10 µM, time 28.0 hrs
# Mus musculus [15] = test: Anti-osteoporosis activity in OVX-induced osteoporosis C57BL/6 mouse model assessed as downregulation of NFATc1 expression in bone at 5 to 10 mg/kg, IG administered every 3 days for 8 weeks by IHC analysis; type: functional, organism-based; settings: dose 5-10 mg/kg
# Mus musculus [16] = test: Anti-osteoporosis activity in OVX-induced osteoporosis C57BL/6 mouse model assessed as increase in connectivity density in femur at 5 to 10 mg/kg, IG administered every 3 days for 8 weeks; type: functional, organism-based; settings: dose 5-10 mg/kg
# [17] = molecular target: Transcription factor p65 (Mus musculus) (UniProt Q04207); test: Binding affinity to NF-kappaB p65 in mouse RAW264.7 cells assessed as thermal stabilization at 10 uM at 37 to 57 degreeC incubated for 4 hrs by CETSA assay; type: cell-based
# Transcription factor p65 (Mus musculus), sequence (Q04207 whole entry): as above
# BMMC [18] = test: Anti-osteoclastogenesis activity in C57BL/6 mouse BMMC cells assessed as reduction in RANKL-induced osteoclasts formation at 5 uM incubated for 4 days in presence of MCSF by TRAP staining based assay; type: functional; parameters: scale not given: the % may be the effect or the level left; settings: time 4 day
# Mus musculus [19] = test: Anti-osteoporosis activity in OVX-induced osteoporosis C57BL/6 mouse model assessed as prevention of bone loss in femur at 10 mg/kg, IG administered every 3 days for 8 weeks; type: functional, organism-based
# RAW264.7 [20] = test: Inhibition of RANKL-induced NF-kappaB activation in mouse RAW264.7 cells expressing luciferase gene assessed as reduction in p65 protein level in nucleus preincubated with compound for 4 hrs followed by LPS-induction and measured after 6 hrs by Western blot analysis; type: cell-based; settings: dose 1-10 µM, time 10.0 hrs
# BMMC [21] = test: Anti-osteoclastogenesis activity in C57BL/6 mouse BMMC cells assessed as reduction in RANKL-induced osteoclasts formation incubated for 4 days in presence of MCSF by TRAP staining based assay; type: functional, cell-based; settings: dose 1-10 µM, time 4.0 day
# [22] = Toxicity in C57BL/6 mouse assessed as abnormal behavior at 5 to 10 mg/kg, IG administered every 3 days for 46 days; type: organism-based; settings: in vivo, po, 1104 h, dose 5-10 mg/kg, time 46 day
# BMMC [23] = test: Anti-osteoclastogenesis activity in RANKL-induced C57BL/6 mouse BMMC cells assessed as suppression of NFATc1 expression level in nucleus at 1 to 10 uM pretreated with compound for 4 hrs followed by RANKL-induction and measured after 24 hrs by Western blot analysis; type: functional, cell-based; settings: dose 1-10 µM, time 28.0 hrs
# RAW264.7 [24] = test: Inhibition of RANKL-induced NF-kappaB activation in mouse RAW264.7 cells expressing luciferase gene preincubated with compound for 4 hrs followed by LPS-induction and measured after 6 hrs by luciferase reporter gene assay; type: cell-based; settings: dose 1-10 µM, time 10.0 hrs
# Mus musculus [25] = test: Anti-osteoporosis activity in OVX-induced osteoporosis C57BL/6 mouse model assessed as increase in BV/TV in femur at 60 mg/kg, IG administered every 3 days for 8 weeks; type: functional, organism-based
# [26] = Toxicity in C57BL/6 mouse assessed as abnormal behavior at 60 mg/kg, IG administered every 3 days for 46 days; type: organism-based; settings: in vivo, po, 1104 h, time 46 day
# Mus musculus [27] = test: Anti-osteoporosis activity in OVX-induced osteoporosis C57BL/6 mouse model assessed as prevention of bone loss in femur at 60 mg/kg, IG administered every 3 days for 8 weeks; type: functional, organism-based
# [28] = Toxicity in C57BL/6 mouse assessed as animal death at 60 mg/kg, IG administered every 3 days for 46 days; type: organism-based; settings: in vivo, po, 1104 h, time 46 day
# Mus musculus [29] = test: Anti-osteoporosis activity in OVX-induced osteoporosis C57BL/6 mouse model assessed as increase in connectivity density in femur at 60 mg/kg, IG administered every 3 days for 8 weeks; type: functional, organism-based
compound,measurement,setting,value
Cc1ccc2c(c1/C=C/C=C/C(=O)O)[C@H](C)C[C@H](C)[C@@H]2O,inhibition,RAW264.7 [1],Active
C[C@@H]1[C@@H](O)[C@H](O)[C@@H]2C[C@H](CO)C[C@H](C)[C@H]2[C@]1(O)/C=C/C=C/C(=O)O,inhibition,RAW264.7 [2],Dose-Dependent Effect
CC(=O)OC[C@H]1C[C@@H](C)[C@H]2[C@@H](C=C[C@H](C)[C@]2(O)/C=C/C=C/C(=O)O)C1,inhibition,RAW264.7 [2],Dose-Dependent Effect
CC(=O)OCc1ccc2c(c1/C=C/C=C/C(=O)O)[C@H](C)C[C@H](C)C2,inhibition,RAW264.7 [1],Active
CC1=C(/C=C/C=C/C(=O)O)[C@@H]2[C@H](C[C@](C)(O)C[C@H]2C)[C@@H](O)[C@H]1O,inhibition,RAW264.7 [2],Dose-Dependent Effect
C[C@@H]1C[C@@](C)(O)C[C@@H]2C=C[C@H](C)[C@H](/C=C/C(=O)O)[C@@H]12,inhibition,RAW264.7 [2],Dose-Dependent Effect
C[C@@H]1[C@@H](Cl)[C@H](O)[C@@H]2C[C@@](C)(O)C[C@H](C)[C@H]2[C@]1(O)/C=C/C=C/C(=O)O,inhibition,RAW264.7 [2],Dose-Dependent Effect
Cc1ccc2c(c1/C=C/C=C/C(=O)O)[C@H](C)C[C@@](C)(O)[C@H]2O,inhibition,RAW264.7 [2],Dose-Dependent Effect
same,inhibition,RAW264.7 [1],Active
same,Activity,BMMC [3]; time 4.0 day,Active
C[C@H]1C[C@H]2[C@@H](O)[C@H](Cl)[C@@H](C)[C@@](O)(/C=C/C=C/C(=O)O)[C@@H]2[C@@H](C)C1,inhibition,RAW264.7 [2],Dose-Dependent Effect
same,Activity,BMMC [3]; time 4.0 day,Active
C[C@@H]1[C@@H](Cl)[C@H](O)[C@@H]2C[C@H](CO)C[C@H](C)[C@H]2[C@@H]1/C=C/C=C/C(=O)O,inhibition,RAW264.7 [2],Dose-Dependent Effect
same,Activity,BMMC [3]; time 4.0 day,Active
C[C@@H]1C[C@@](C)(O)C[C@@H]2C=C[C@H](C)[C@H](/C=C/C=C/C(=O)O)[C@@H]12,inhibition,RAW264.7 [2],Dose-Dependent Effect
C[C@@H]1C[C@@H]2[C@@H](C(=O)O)[C@H](C)[C@](O)(/C=C/C=C/C(=O)O)[C@H]2[C@H](C)C1,inhibition,RAW264.7 [2],Dose-Dependent Effect
Cc1cccc([C@H](C)C[C@H](C)CO)c1/C=C/C=C/C(=O)O,inhibition,RAW264.7 [4],Active
same,Activity,BMMC [5],Dose-Dependent Effect
same,Activity,Mus musculus [6],Active
same,Activity,BMMC [7],Dose-Dependent Effect
same,Activity,BMMC [8],Non-Toxic
same,inhibition,RAW264.7 [2],Dose-Dependent Effect
same,Activity,Mus musculus [9],Active
same,Activity,Mus musculus [10],Active
same,Activity,[11],Non-Toxic
same,Activity,RAW264.7 [12],Active
same,Activity,Mus musculus [13],Active
same,Kd,Transcription factor p65,44.7 µM
same,Activity,BMMC [14],Dose-Dependent Effect
same,Activity,Mus musculus [15],Active
same,Activity,Mus musculus [16],Active
same,Activity,[17],Active
same,Activity,BMMC [18],49.2%
same,Activity,Mus musculus [19],Active
same,inhibition,RAW264.7 [20],Dose-Dependent Effect
same,Activity,BMMC [21],Dose-Dependent Effect
same,Activity,[22],Non-Toxic
same,Activity,BMMC [23],Active
same,inhibition,RAW264.7 [24],Dose-Dependent Effect
same,Activity,BMMC [3]; time 4 day,69.7%
C[C@]12CC[C@@H]3c4ccc(O)cc4CC[C@H]3[C@@H]1CC[C@@H]2O [ESTRADIOL],Activity,Mus musculus [25],Active
same,Activity,[26],Non-Toxic
same,Activity,Mus musculus [27],Active
same,Activity,[28],Non-Toxic
same,Activity,Mus musculus [29],Active
CC1=CC(=O)[C@H]2C[C@@H](C)C[C@@H](C)[C@@H]2[C@]1(O)/C=C/C=C/C(=O)O,inhibition,RAW264.7 [2],Dose-Dependent Effect
C[C@@H]1C[C@@](C)(O)C[C@@H]2C=C[C@@](C)(/C=C/C=C/C(=O)O)C(=O)[C@@H]12,inhibition,RAW264.7 [2],Dose-Dependent Effect
Cc1ccc2c(c1/C=C/C=C/C(=O)O)[C@H](C)C[C@H](C)[C@H]2O,inhibition,RAW264.7 [1],Active
C[C@@H]1C[C@@](C)(O)C[C@@H]2C=C[C@H](C)[C@](O)(/C=C/C=C/C(=O)O)[C@@H]12,inhibition,RAW264.7 [2],Dose-Dependent Effect
same,Activity,BMMC [3]; time 4.0 day,Active
CC(=O)C[C@@H](C)c1cccc(C)c1/C=C/C=C/C(=O)O,inhibition,RAW264.7 [2],Dose-Dependent Effect
CC(=O)OC[C@@H]1Cc2ccc(C)c(/C=C/C=C/C(=O)O)c2[C@H](C)C1,inhibition,RAW264.7 [1],Active
C[C@@H]1C[C@](O)(CO)C[C@@H]2C=C[C@H](C)[C@H](/C=C/C=C/C(=O)O)[C@@H]12,inhibition,RAW264.7 [2],Dose-Dependent Effect
CC(=O)OC[C@@H](C)C[C@@H](C)c1cccc(C)c1/C=C/C=C/C(=O)O,inhibition,RAW264.7 [2],Dose-Dependent Effect
same,Activity,BMMC [3]; time 4.0 day,Active
Cc1ccc2c(c1/C=C/C=C/C(=O)O)[C@H](C)C[C@@](C)(O)C2,inhibition,RAW264.7 [2],Dose-Dependent Effect
same,inhibition,RAW264.7 [1],Active
CO[C@H]1C=C(C)[C@H](/C=C/C=C/C(=O)O)[C@@H]2[C@@H]1C[C@@H](CO)C[C@H]2C,inhibition,RAW264.7 [2],Dose-Dependent Effect
Cc1ccc2c(c1/C=C/C=C/C(=O)O)[C@H](C)C[C@H](C)C2,inhibition,RAW264.7 [1],Active
Cc1ccc2c(c1/C=C/C=C/C(=O)O)[C@H](C)C[C@H](CO)C2,inhibition,RAW264.7 [1],Active
CC1=C(/C=C/C=C/C(=O)O)[C@H]2[C@H](C=C1)C[C@H](C)C[C@@H]2C,inhibition,RAW264.7 [2],Dose-Dependent Effect
C[C@@H]1Cc2ccc(CO)c(/C=C/C=C/C(=O)O)c2[C@H](C)C1,inhibition,RAW264.7 [1],Active
